For one test, the target named is CaCiv1 (Candida albicans, UniProt A0A1D8PH53). In words: Assay for inhibition of CIV-CDK (CIV1) activity. The format is biochemical. The note with it: CaCiv1 with Cdk2 substrate, [33P]ATP, 30 min ambient temperature; read-out: IC50 as micromolar. The text has this:
1) Assay for Inhibition of CIV-CDK (CIV1) Activity
a) Preparation of the Reagents

A further test has as its target T1, SRC kinase (Homo sapiens, UniProt P12931).
T1 construct: purchased Upstate Biotechnology 14-117
In words: Assay for inhibition of SRC kinase activity. The format is biochemical. To be noted: fluorescence polarization, read-out: percentage inhibition at 20 μM. As for the experimental part: 2) Assay for Inhibition of SRC Kinase Activity
The inhibition is determined by fluorescence polarization, the […] kinase phosphorylates a peptide detected by adding an anti-phosphopeptide antibody coupled to a fluorescent label.
The assay is carried out in a final volume of 50 μl; all the reagents are prepared in a buffer: • 25 mM HEPES/NaOH pH 7.6 • 5 mM MgCl2 • 2 mM MnCl2 • 50 μM Na2VO4 5 μl of the 10-times concentrated inhibitor are added to 25 μl of enzyme (12 U/ml final concentration), (Upstate Biotechnology ref 14-117). After incubation for 5 minutes at ambient temperature, 10 μl of PolyGluTyr 4/1 (150 ng/ml final concentration) and 10 μl of ATP (5 μM final concentration) are added. The detection is carried out after incubation for 20 minutes at ambient temperature. • Results obtained expressed as percentage inhibition at 20 μM • Example 8 98% • Example 15 99% • Example 20 99% • Example 24 99% • Example 27 95% • Example 30 99% • Example 32 100% • Example 38 95% 3) Assay for Inhibition of CDK2 Activity

A further test has as its target T2, ZAP kinase (Homo sapiens, UniProt P43403).
T2 construct: purchased Panvera P2782
T2 sequence (P43403 1-619): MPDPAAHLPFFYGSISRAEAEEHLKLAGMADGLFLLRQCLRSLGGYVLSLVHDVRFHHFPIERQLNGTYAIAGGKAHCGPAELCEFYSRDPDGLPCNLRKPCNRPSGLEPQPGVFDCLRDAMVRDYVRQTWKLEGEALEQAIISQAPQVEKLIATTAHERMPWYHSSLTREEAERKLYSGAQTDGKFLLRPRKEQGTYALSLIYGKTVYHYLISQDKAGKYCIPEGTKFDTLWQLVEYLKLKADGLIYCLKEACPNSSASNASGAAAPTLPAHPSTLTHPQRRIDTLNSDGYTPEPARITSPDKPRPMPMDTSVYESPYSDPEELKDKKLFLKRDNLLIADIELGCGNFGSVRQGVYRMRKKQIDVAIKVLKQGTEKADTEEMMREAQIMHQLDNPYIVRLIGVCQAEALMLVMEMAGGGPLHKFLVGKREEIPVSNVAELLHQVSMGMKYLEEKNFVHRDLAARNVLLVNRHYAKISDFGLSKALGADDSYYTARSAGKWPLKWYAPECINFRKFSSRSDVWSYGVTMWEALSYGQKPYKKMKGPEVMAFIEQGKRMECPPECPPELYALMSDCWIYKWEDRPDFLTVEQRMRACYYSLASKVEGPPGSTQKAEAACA
In words: Assay for inhibition of ZAP kinase activity. To be noted: fluorescence polarization, read-out: percentage inhibition at 20 μM. The format is biochemical. On the procedure: The inhibition of the kinase activity is determined by fluorescence polarization, the ZAP kinase phosphorylates a peptide detected by adding an anti-phosphopeptide antibody coupled to a fluorescent label.
The assay is carried out in a final volume of 50 μl; all the reagents are prepared in a buffer: • 20 mM Tris/HCl pH 7.7 • 7 mM MnCl2 • 50 μM Na2VO4 5 μl of the 10-times concentrated inhibitor are added to 25 μl of enzyme (0.7 μg/ml final concentration) (Panvera ref P2782). After incubation for 5 minutes at ambient temperature, 10 μl of PolyGT (300 ng/ml final concentration) and 10 μl of ATP (0.25 μM final concentration) are added. The detection is carried out after incubation for 15 minutes at ambient temperature. • Results obtained expressed as percentage inhibition at 20 μM • Example 8 98% • Example 20 95% • Example 24 96% 7) Assay for Inhibition of Casein Kinase II Activity

In a further test the target is T3, EGF tyr Kinase (Homo sapiens, UniProt P00533).
T3 construct: purchased Tebu SE-124
In words: Assay for inhibition of EGF tyr kinase activity. The format is biochemical. The note with it: [33P]ATP, read-out: percentage inhibition at 20 μM. On the procedure:
The inhibition of the kinase activity is determined by measuring the phosphorylation of its substrate peptide.
The assay is carried out in a final volume of 100 μl.
The incubation buffer is as follows:
• 5 mM Hepes/Tris pH 7.4 • 2% Glycerol • 0.2% triton X100 10 μl of the 10-times concentrated inhibitor are added to 20 μl of incubation buffer containing 1 U/μl final concentration of the enzyme (Tebu, SE-124); 30 μl of incubation buffer containing 0.43 mg/ml final concentration of peptide substrate are then added along with 20 μl of incubation buffer containing 0.4 μM of enzyme and, finally, 20 μl of 6 mM tris/HCl pH 7.4, 15 mM MgCl2 buffer containing 10 μM ATP and radiolabeled ATP, [^33P]ATP (0.25 μCi), are added. The reaction is stopped after incubation for 60 minutes at 30° C. • Results obtained expressed as percentage inhibition at 20 μM • Example 20 100% 10) Assay for Inhibition of AKT Activity

The next test concerns the target FAK (Homo sapiens, UniProt Q05397). In words: Assay for inhibition of FAK activity (autophosphorylation). The note with it: fluorescence polarization, ATP 1 μM; read-out: IC50s expressed as micromolar. The test is classed as biochemical. On the procedure: The inhibition of the kinase activity is determined by fluorescence polarization, the autophosphorylation of FAK is detected by adding an anti-phosphoprotein antibody coupled to a fluorescent label.
The assay is carried out in a final volume of 30 μl; all the reagents are prepared in a buffer: • 50 mM HEPES pH 7.5 • 0.03% triton X100 • 10 mM MgCl2 • 5% Glycerol • 1 mM DTT 10 μl of the 10-times concentrated inhibitor are added to 5 μl of enzyme (100 ng final concentration), and 5 μl of incubation buffer and 10 μl of ATP (1 μM final concentration) are added.

The test system of the next test is Aspergillus fumigatus. In words: Minimum inhibitory concentration in liquid medium, micro method (NCCLS M27-A). The test is classed as cell-based. The note with it: at least 80% inhibition of growth, read after 48-72 h at 37° C., RPMI 1640. On the procedure:
(§1) The assay is carried out in a final volume of 40 μl; all the reagents are prepared in a buffer: • 50 mM HEPES pH 7.5 • 0.03% triton X100 • 10 mM MgCl2 • 5% Glycerol • 1 mM DTT 10 μl of the 10-times concentrated inhibitor are added to 5 μl of enzyme (75 ng final concentration), and 5 μl of peptide (1 μM final concentration), then 2.5 μl of incubation buffer containing 40 μM ATP and 2.5 μl of radiolabeled ATP, [^33P]ATP (500 nCi), are added. After incubation for 15 minutes at ambient temperature, 10 μl of incubation buffer containing 192 nM of substrate. […] Reference method for broth dilution antifungal susceptibility testing of yeasts. Approved Standard M27-A. NCCLS, Villanova, Pa.); the minimum concentration with which a visible decrease is observed in the cloudiness of the cell growth (at least 80% compared to a control without product) is the Minimum Inhibitory Concentration (MIC) of the antifungal agent with respect to the strain tested.
(§2) RPMI 1640 medium (liquid) without L-glutamine is supplemented with L-glutamine (0.3 g/l or 10.5 ml of a solution at 200 mM) and buffered with 34.54 g/l (0.165 M) of morpholinepropanesulfonic acid (MOPS). The medium is sterilized by filtration. 100 μl of RPMI medium are distributed into each well of a 96-well plate. The appropriate volume. of the antifungal solution is distributed in the first column of the microplate and supplemented with 200 μl of medium. Doubling dilutions are made so as to establish a range of 11 concentrations in each line of the microplate. The 12th well of each row will serve as a growth control. The cell suspension is prepared from a culture (liquid or agar) or from a frozen vial, and is diluted in RPMI medium so as to obtain a cell suspension at 5×10^3−2×10^4 cells/ml. 100 μl of the cell suspension are distributed in the microplate. For all species of Candida, the MIC is read after 24-48 h, and for Cryptococcus and Aspergillus after 48-72 h, of incubation at 37° C. in a normal atmosphere. The MIC is read by visual reading, determining the well which contains the lowest dose of antifungal agent which causes at least 80% inhibition of the growth of the fungus.

In another test the test system is Candida albicans. Described as above. To be noted: read-out: MIC Candida albicans. The format is cell-based. As for the experimental part:
as §1, §2

Another test concerns Candida glabrata. Described as above. The test is classed as cell-based. The note with it: Nakaseomyces glabratus, read-out: MIC Candida glabrata. As for the experimental part: as §1, §2

Values after ≈ are worked out from the molar mass of the structure shown.

T1 sequence (P12931 whole entry): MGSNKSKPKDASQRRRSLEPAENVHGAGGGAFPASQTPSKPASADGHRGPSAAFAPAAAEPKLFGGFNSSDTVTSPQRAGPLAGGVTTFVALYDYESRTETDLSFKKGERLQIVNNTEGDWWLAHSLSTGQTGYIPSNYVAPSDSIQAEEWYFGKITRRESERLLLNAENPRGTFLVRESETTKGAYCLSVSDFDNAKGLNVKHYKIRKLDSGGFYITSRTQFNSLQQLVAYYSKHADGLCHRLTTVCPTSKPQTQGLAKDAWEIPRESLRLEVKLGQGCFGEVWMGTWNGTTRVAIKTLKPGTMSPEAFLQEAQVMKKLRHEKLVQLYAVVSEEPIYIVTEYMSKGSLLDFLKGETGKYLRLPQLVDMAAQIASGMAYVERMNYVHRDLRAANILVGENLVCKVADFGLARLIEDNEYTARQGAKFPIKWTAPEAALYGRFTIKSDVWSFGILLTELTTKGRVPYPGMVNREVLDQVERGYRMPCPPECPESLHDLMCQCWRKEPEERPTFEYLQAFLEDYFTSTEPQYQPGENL
Chain of CaCiv1 (A0A1D8PH53 entry or part of it): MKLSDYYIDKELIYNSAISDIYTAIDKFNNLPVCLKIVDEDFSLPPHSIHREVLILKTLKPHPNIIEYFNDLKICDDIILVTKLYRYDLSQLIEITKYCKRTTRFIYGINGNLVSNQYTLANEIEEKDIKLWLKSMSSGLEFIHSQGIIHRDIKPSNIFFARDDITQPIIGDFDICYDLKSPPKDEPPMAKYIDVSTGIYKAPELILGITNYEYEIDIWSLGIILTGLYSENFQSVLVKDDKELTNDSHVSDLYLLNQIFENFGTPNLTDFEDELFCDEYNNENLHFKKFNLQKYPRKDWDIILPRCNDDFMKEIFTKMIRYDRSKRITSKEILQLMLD
T3 sequence (P00533 25-1210): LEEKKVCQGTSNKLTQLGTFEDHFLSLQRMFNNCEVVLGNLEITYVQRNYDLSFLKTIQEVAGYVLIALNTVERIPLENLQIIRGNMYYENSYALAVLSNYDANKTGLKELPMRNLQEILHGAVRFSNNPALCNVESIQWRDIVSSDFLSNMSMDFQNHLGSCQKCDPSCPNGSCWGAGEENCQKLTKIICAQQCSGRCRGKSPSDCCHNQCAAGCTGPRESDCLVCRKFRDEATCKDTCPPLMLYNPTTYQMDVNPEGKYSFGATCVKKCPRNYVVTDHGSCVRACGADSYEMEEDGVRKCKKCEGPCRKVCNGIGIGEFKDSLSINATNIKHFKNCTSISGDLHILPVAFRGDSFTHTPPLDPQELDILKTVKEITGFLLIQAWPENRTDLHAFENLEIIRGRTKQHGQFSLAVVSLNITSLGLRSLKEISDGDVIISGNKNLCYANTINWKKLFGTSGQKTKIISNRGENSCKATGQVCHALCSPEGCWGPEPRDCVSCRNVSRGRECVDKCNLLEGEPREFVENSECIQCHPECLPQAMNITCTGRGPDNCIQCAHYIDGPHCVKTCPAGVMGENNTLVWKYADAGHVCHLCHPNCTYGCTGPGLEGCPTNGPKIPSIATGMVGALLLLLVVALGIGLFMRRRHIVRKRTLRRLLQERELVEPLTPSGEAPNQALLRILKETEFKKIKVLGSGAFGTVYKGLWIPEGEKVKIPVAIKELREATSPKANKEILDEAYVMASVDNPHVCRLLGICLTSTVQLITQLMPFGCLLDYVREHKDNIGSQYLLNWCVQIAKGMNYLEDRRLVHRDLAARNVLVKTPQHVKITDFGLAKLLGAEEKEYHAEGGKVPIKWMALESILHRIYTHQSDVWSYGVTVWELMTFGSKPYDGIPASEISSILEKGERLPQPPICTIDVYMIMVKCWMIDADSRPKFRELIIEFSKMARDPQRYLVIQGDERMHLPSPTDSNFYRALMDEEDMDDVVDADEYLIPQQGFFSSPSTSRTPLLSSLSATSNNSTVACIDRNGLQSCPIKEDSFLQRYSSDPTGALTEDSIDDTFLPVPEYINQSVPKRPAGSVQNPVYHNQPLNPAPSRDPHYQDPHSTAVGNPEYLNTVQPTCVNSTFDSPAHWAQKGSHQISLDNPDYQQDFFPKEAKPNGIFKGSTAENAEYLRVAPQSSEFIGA
Chain of FAK (Q05397 whole entry, species assumed): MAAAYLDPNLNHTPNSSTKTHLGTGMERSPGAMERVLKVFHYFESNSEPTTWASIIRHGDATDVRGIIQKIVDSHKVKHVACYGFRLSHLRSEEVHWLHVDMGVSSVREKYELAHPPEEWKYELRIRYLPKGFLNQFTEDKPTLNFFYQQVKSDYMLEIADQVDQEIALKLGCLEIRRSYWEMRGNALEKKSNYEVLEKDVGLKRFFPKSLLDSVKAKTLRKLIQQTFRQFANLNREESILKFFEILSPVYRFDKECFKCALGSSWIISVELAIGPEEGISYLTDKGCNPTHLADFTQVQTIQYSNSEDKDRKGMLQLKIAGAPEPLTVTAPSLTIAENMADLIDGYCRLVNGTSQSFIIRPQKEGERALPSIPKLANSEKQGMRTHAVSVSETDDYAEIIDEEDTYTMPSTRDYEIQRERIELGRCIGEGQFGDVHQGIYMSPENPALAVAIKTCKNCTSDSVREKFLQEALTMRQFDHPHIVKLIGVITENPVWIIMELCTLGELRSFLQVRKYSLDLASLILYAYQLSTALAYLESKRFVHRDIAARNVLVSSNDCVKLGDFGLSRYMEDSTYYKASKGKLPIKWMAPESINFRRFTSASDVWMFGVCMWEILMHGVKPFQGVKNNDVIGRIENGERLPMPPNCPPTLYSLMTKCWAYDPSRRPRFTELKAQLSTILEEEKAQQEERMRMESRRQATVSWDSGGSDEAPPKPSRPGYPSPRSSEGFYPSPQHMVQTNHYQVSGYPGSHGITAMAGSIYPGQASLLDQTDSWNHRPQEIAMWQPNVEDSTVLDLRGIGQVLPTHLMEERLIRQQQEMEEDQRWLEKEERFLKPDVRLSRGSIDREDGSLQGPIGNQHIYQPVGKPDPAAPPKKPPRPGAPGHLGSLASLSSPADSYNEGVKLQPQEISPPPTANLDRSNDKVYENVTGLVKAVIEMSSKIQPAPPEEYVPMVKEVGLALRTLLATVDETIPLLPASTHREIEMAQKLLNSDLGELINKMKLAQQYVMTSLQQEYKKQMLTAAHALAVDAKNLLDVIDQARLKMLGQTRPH

Take `N[C@H]1CC[C@H](Nc2nc(-n3cnc4cc(OCc5ccccc5)ccc43)c3nc[nH]c3n2)CC1` [Example 20, Trans-N-[6-[5-(phenylmethoxy)-1H-benzimidazol-1-yl]-9H-purin-2-yl]-1,4-cyclohexanediamine]: the IC50 at CaCiv1 was determined as 1.7 µM; at FAK, 1.6 µM. Further, the inhibition at 20 µM at SRC kinase was 99%; at ZAP kinase, 95%; on EGF tyr Kinase it was 100%. This compound registered an MIC Aspergillus fumigatus in the test on Aspergillus fumigatus of 32 µg/mL (≈ 70.4 µM). The MIC is 32 µg/mL (≈ 70.4 µM) with Candida albicans and 16 µg/mL (≈ 35.2 µM) in the test on Candida glabrata.

For the origin of these results see patent publication US7476670B2, “Purine derivatives, method for preparing, pharmaceutical compositions and novel use” (Aventis Pharma S.A., priority 2003, dated 2009).
